# Results published in patent US20120190752A1, “EXO-S-MECAMYLAMINE METHOD, USE, AND COMPOUND FOR TREATMENT” (Targacept Inc., priority 2009, published 2012).
# Tested on: subjects with major depressive disorder (MDD) who were inadequate responders to citalopram
# Test: SIS (Sheehan Irritability Scale), total and individual items, Phase 2b add-on trial
# Type: in vivo, human
# Design: SIS Adj. Mean change / SIS total score change Adjusted Mean / SIS Anger With Others change Adjusted Mean / SIS Anger With Self change Adjusted Mean / SIS Edginess change Adjusted Mean / SIS Irritability change Adjusted Mean / SIS Moodiness change Adjusted Mean / SIS Temper change Adjusted Mean: scale not given here
# Procedure: In more detail, a multi-center double-blind, randomized, placebo-controlled, parallel group, flexible dose titration study of TC-5214 as adjunctive therapy in subjects with major depressive disorder (MDD) who were inadequate responders to citalopram was conducted in centers in the US and India. The study consisted of a screening period, baseline/washout period, open-label phase, double-blind phase, and a follow-up visit. Subject participation in the study could continue for up to 16 weeks of treatment. Following a washout period of up to 28 days for other antidepressants, subjects with MDD and a MADRS total score >/=28 and a Clinical Global Impression-Severity (CGI-S) score >/=4 were enrolled on Day 1 into an open-label citalopram-only phase of the study. This phase lasted 8 weeks, with citalopram (CIT) dose increased from a once-daily dose of 20 mg (Day 1 through Week 4) to 40 mg (Week 4 through Week 8). A total of 579 subjects entered the open-label citalopram phase. At Week 8, subjects who tolerated 40 mg CIT, but whose MADRS score was reduced <50% from baseline and no lower than 17, and CGI-S≧4, were considered inadequate responders. These subjects (n=270) were randomized in a double-blind fashion to receive either placebo or TC-5214-23 as add-on therapy to continued CIT. The double-blind phase of the study also lasted 8 weeks (Week 8 to Week 16). Study drug, TC-5214-23 or placebo, was started at 2 mg daily (1 mg twice per day [BID] dosing), added on to continuing CIT (40 mg PO qd). After 2 weeks of treatment, the dose of TC-5214 could be increased to 4 mg (2 mg BID) or continued unchanged, with up-titration based upon good tolerability and inadequate therapeutic response. After a further 2 weeks, the dose of TC-5214 could be increased again to 8 mg (4 mg BID) if judged appropriate by the investigator, based upon good tolerability and inadequate therapeutic response. At any time during the double-blind phase of the study, placebo or TC-5214-23 could be reduced to the previous dose level following the emergence of unacceptable adverse events (AEs). […] At this follow-up, any signs or symptoms of relapse were evaluated. If a subject was prematurely discontinued from the study between Week 8 and Week 16 for any reason, the investigator was to make every effort to perform all evaluations as per protocol, assuming the subject had reached the end of the double-blind add-on treatment phase. These evaluations were to be made as soon as possible and within 2 weeks of discontinuation. […] There was no meaningful difference in results as a function of age, gender, site, or smoking status. [table] With regard to efficacy endpoints, the following tables present efficacy used in the ITT (Intent-to-Treat) and PP (Per Protocol) populations unless otherwise specific. The primary inference was based upon Week 16 visit using the ITT population. Change from baseline was obtained by subtracting the baseline values from the individual on-treatment values. Change from Week 16 was obtained by subtracting the Week 16 values from the individual follow-up visit (Week 18/19) values. If either the baseline or Week 16 or on-treatment or follow-up value was missing, the change from baseline or Week 16 value was also set to missing. To account for missing data, the last observation carry forward (LOCF) method was used for the ITT and PP populations. Thus, the last available on-therapy observation for a subject, including the observation at premature discontinuation, was used to estimate subsequent missing data points. For efficacy, baseline data were collected at Week 8 in the double-blind augmentation phase electronic case report form pages. For SIS, the endpoint was the change from Week 8 (double-blind baseline) to Week 16 of the SIS. Changes were analyzed using ANCOVA. Each SIS item score was also analyzed using ANCOVA. […]
# [1] = ITT population, Double Blind Week 16 LOCF, change from DB baseline
# [2] = ITT population, Double Blind Week 18 LOCF (Follow-up), change from Week 16
# [3] = PP population, Double Blind Week 16 LOCF, change from DB baseline
# [4] = PP population, Double Blind Week 18 LOCF (Follow-up), change from Week 16
compound,measurement,setting,value
CN[C@@]1(C)[C@@H]2CC[C@@H](C2)C1(C)C [TC5214],SIS Anger With Others change Adjusted Mean,[1],−2.56
same,SIS Anger With Others change Mean Difference between TC-5214 and Placebo,[1],1.22
same,SIS Anger With Self change Adjusted Mean,[1],−2.29
same,SIS Anger With Self change Mean Difference between TC-5214 and Placebo,[1],1.01
same,SIS Edginess change Adjusted Mean,[1],−2.55
same,SIS Edginess change Mean Difference between TC-5214 and Placebo,[1],1.14
same,SIS Frustration change Adjusted Mean,[1],−2.74
same,SIS Frustration change Mean Difference between TC-5214 and Placebo,[1],1.42
same,SIS Irritability change Adjusted Mean,[1],−2.74
same,SIS Irritability change Mean Difference between TC-5214 and Placebo,[1],1.38
same,SIS Moodiness change Adjusted Mean,[1],−3.00
same,SIS Moodiness change Mean Difference between TC-5214 and Placebo,[1],1.51
same,SIS Temper change Adjusted Mean,[1],−2.37
same,SIS Temper change Mean Difference between TC-5214 and Placebo,[1],1.19
same,SIS Anger With Others change Adjusted Mean,[2],−0.07
same,SIS Anger With Others change Mean Difference between TC-5214 and Placebo,[2],0.01
same,SIS Anger With Self change Adjusted Mean,[2],−0.07
same,SIS Anger With Self change Mean Difference between TC-5214 and Placebo,[2],0.09
same,SIS Edginess change Adjusted Mean,[2],−0.24
same,SIS Edginess change Mean Difference between TC-5214 and Placebo,[2],0.01
same,SIS Frustration change Adjusted Mean,[2],−0.09
same,SIS Frustration change Mean Difference between TC-5214 and Placebo,[2],−0.06
same,SIS Irritability change Adjusted Mean,[2],−0.14
same,SIS Irritability change Mean Difference between TC-5214 and Placebo,[2],−0.08
same,SIS Moodiness change Adjusted Mean,[2],−0.13
same,SIS Moodiness change Mean Difference between TC-5214 and Placebo,[2],−0.05
same,SIS Temper change Adjusted Mean,[2],−0.11
same,SIS Temper change Mean Difference between TC-5214 and Placebo,[2],−0.07
same,SIS Anger With Others change Adjusted Mean,[3],−2.77
same,SIS Anger With Others change Mean Difference between TC-5214 and Placebo,[3],1.42
same,SIS Anger With Self change Adjusted Mean,[3],−2.54
same,SIS Anger With Self change Mean Difference between TC-5214 and Placebo,[3],1.13
same,SIS Edginess change Adjusted Mean,[3],−2.81
same,SIS Edginess change Mean Difference between TC-5214 and Placebo,[3],1.36
same,SIS Frustration change Adjusted Mean,[3],−3.00
same,SIS Frustration change Mean Difference between TC-5214 and Placebo,[3],1.59
same,SIS Irritability change Adjusted Mean,[3],−3.00
same,SIS Irritability change Mean Difference between TC-5214 and Placebo,[3],1.58
same,SIS Moodiness change Adjusted Mean,[3],−3.34
same,SIS Moodiness change Mean Difference between TC-5214 and Placebo,[3],1.71
same,SIS Temper change Adjusted Mean,[3],−2.55
same,SIS Temper change Mean Difference between TC-5214 and Placebo,[3],1.36
same,SIS Anger With Others change Adjusted Mean,[4],−0.10
same,SIS Anger With Others change Mean Difference between TC-5214 and Placebo,[4],0.03
same,SIS Anger With Self change Adjusted Mean,[4],−0.09
same,SIS Anger With Self change Mean Difference between TC-5214 and Placebo,[4],0.11
same,SIS Edginess change Adjusted Mean,[4],−0.27
same,SIS Edginess change Mean Difference between TC-5214 and Placebo,[4],0.05
same,SIS Frustration change Adjusted Mean,[4],−0.09
same,SIS Frustration change Mean Difference between TC-5214 and Placebo,[4],−0.04
same,SIS Irritability change Adjusted Mean,[4],−0.14
same,SIS Irritability change Mean Difference between TC-5214 and Placebo,[4],−0.07
same,SIS Moodiness change Adjusted Mean,[4],−0.13
same,SIS Moodiness change Mean Difference between TC-5214 and Placebo,[4],−0.01
same,SIS Temper change Adjusted Mean,[4],−0.14
same,SIS Temper change Mean Difference between TC-5214 and Placebo,[4],−0.00
